Where “and” joins values, the source holds several entries; their conditions need not be identical. Equal values may be shown once. Where a name gives a salt, the structure may show the parent alone.

A short description of data set [1]: Kinetics of MMF-release during incubation in intestinal fluid of the minipig. The note with it: for release of the second equivalent of MMF / release kinetics of the first equivalent of MMF: diluted minipig small intestinal fluid pH 6.8, 37° C., compared with DMF (FIG. 1); for release kinetics of the first equivalent of MMF: time 0-30 min. The class given is in vitro ADME, Göttingen SPF minipig. On the procedure: Example 7: Investigation and Comparison of the Kinetics of MMF-Release of the Different Compounds of the Present Invention and DMF During Incubation in Intestinal Fluid of the Minipig
Intestinal tissue/fluid and enterocyte samples were taken from a 10 month old, female Göttingen SPF minipig. The body weight was 21 kg. The minipig was fasted for approximately 28 hours before sampling of intestinal fluid/tissues and enterocytes. On the day of sampling, the minipig was weighed and anaesthetised by an intramuscular injection in the neck or in the left hind leg (about 0.3 ml per kg body weight) of a mixture of Zoletil 50 Vet., Virbac, France (125 mg tiletamine and 125 mg zolazepam), Rompun Vet., Bayer, Germany (20 mg xylazine/ml, 6.5 ml), Ketaminol Vet., Veterinaria AG, Switzerland (100 mg ketamine/ml, 1.5 ml) and Methadon DAK, Nycomed Danmark, Denmark (10 mg methadon/ml, 2.5 ml). The animal was killed by exsanguination before sampling of intestinal fluid. An intestinal segment was ligated at both ends before removal. The isolated tissue was placed in isotonic saline and opened by a longitudinal cut for sampling of intestinal fluid.
The intestinal tissue from each segment was transferred into a Centrifuge Tube, immersed in 10 ml 50 mM phosphate buffer, pH 6.8 and frozen at −70° C.
• Instrument: Acquity UPLC system coupled with a TQ detector (triple quadruple mass spectrometer) UPLC Method: Column: Phenomenex Kinetex C18, 100 A, 2.6 μm (150×4.6 mm) flow: 0.4 ml/min split: appr. 100 μl/min to MS Temperature: 30° C. solvent system (isocratic): • Solvent A 25% water with 0.1% acetic acid • Solvent B 75% methanol with 0.1% acetic acid stoptime: 6 min autosampler temperature: 8° C. injection volume: 4 μl retention time: MN/IF: 4.3 min • MEF: 4.7 min Mass Spectrometry software: Masslynx 4.1 detection mode: electrospray/negative ions (ESP−) capillary voltage: 2.3 kV source temperature: 100° C. desolvation temperature: 450° C. cone voltage: 18 V desolvation gas: N2 650 L/h cone gas: N2, 20 L/h collision gas: argon, appr. 3.3*10^−3 mbar collision energy: 11 eV MRM [m/z]: 128.94>85.03 Monomethylfumarate dwell: 200 msec • 142.99>99.06 Monoethylfumarate (ISTD) dwell: 200 msec 7.2.1.2 Stock and Calibration Solutions
Stock (SS), working (WS) and calibration solutions of the analyte monomethyl fumarate (MMF) and the internal standard (ISTD) […] (MEF) were prepared as described below. • SSMMF: In a 10 ml volumetric flask, 6.5 mg MMF (Batch: MKRJ0642V/Aldrich) were dissolved in methanol and made up to volume (c=650 μg/ml) • SSISTD: In a 100 ml volumetric flask, 10 mg MEF (Batch: STBC5219V/Aldrich) were dissolved in methanol and made up to volume (c=100 μg/ml) • WSISTD: 100 μl SSISTD were transferred into a 10 ml volumetric flask and made up to volume with acetonitrile (c=1,000 ng/ml);
Calibration solutions were prepared by serial dilution of SSMMF; diluted small intestinal fluid (diluted by 1/20 v/v with 50 mM KH2PO4, pH 6.8; (dil IF) was used as matrix. The dilution scheme is given below:
50 μl sample (calibration solution or sample of an incubation experiment with MMF prodrugs) was mixed with 50 μl WSISTD, 20 μl formic acid and 100 μl acetonitrile. This mixture was vortexed for 15 sec and centrifuged (13,000 rpm, 3 min). Thereafter, 4 μl of the supernatant were subjected to LC-MS analysis.
Stock solutions were prepared in DMSO or, for one compound, in DMSO with 10% (v/v) water. Concentrations in stock solutions were […] for compounds with one, two and three molar MMF equivalents.
In a HPLC glass vial, 8 μl of stock solution were mixed with 792 μl dil IF and the mixture was stirred (250 rpm) in a water bath (T=37° C.).
Immediately after mixing as well as at t=15 min, 30 min, 60 min, 90 min and 120 min, 50 μl were withdrawn and prepared for LC-MS analysis as described in chapter. 2.1.3. […]

A further data set deals with Caco-2 monolayers. Nature of the data set: Membrane permeability in Caco-2 monolayers. On the procedure:
(§1) The membrane permeability was investigated in Caco-2 monolayers. DMF was investigated in a separate experiment for comparison.
(§2) Based on the assumption that in vivo, the intact molecules will be pre-systemically metabolized, the permeability test was performed only in the apical→basolateral direction. The test concentration in the apical medium was 250 μM. […] Sampling time points were 15, 45 and 90 min.
(Passage across Caco-2 layers is used to estimate intestinal permeability.)

Data set [2] deals with MOG35-55-induced experimental autoimmune encephalomyelitis (EAE). Nature of the data set: MOG35-55-induced experimental autoimmune encephalomyelitis (EAE) in C57BL/6 mice. Format: in vivo. The following applies: for body weight: prophylactic oral treatment from day 1, observation day 1-13 (FIG. 2); for development of clinical symptoms (clinical score): prophylactic oral treatment from day 1, observation day 1-13, 11.54 mM dose formulation, 10 ml/kg (FIG. 3). From the text: Assessment and comparison of the efficacy of compounds of the invention and DMF (reference) in MOG35-55-induced experimental autoimmune encephalomyelitis (EAE) in C57BL/6 mice: • Test system: male C57BL/6 mice, 12 weeks old; 10 animals per treatment group; • Induction of EAE: Day −1—subcutaneous injection of MOG35-55, suspended in complete Freund's adjuvans and intraperitoneal injection of pertussis toxin. • Day 3—intraperitoneal injection of pertussis toxin. • Treatment: Dimethylfumarate and test substances or vehicle only were administered via oral route. Test substances were dissolved or suspended in 0.5% hydroxyethylcellulose (dissolved in 50 mM potassium dihydrogenphosphate, pH 5.0). Drug concentration in dose formulations: 11.54 mM; • Dose volume: 10 ml/kg body weight; • Start of treatment: Day 1 • Observations (clinical Observations were recorded daily between day 1 and 13. score and body weight): • Clinical score: grade 0-10; 0 (=no impairments), 1 (normal movement; limp tail: proximal ⅔ of the tail is limp and droopy), 2 (normal movement; whole tail is limp; 3 (wobbly walk; absent righting reflex), 4 (gait ataxia), 5 (mild paraparesis), 6 (moderate paraparesis), 7 (severe paraparesis or paraplegia), 8 (tetraparesis), 9 (moribund), 10 (death).

The next data set can be described thus: in vitro. The following applies: human, Caco-2. On the procedure: as §1, §2
Data set [3] can be described thus: In vivo pharmacokinetics of MMF after oral administration in NMRI mice. The note with it: female, mouse, 65.3 mg/kg. On the procedure: The pharmacokinetics of MMF after administration of the compound of Example 1 and DMF for comparison was investigated in female NMRI mice (3 animals per group). The test compound was dissolved in DMSO/PEG300 (20/80) and administered p.o. (gavage) at a dose volume of 10 ml/kg. DMF was given at a dose of 45 mg/kg. The test compound was dosed at a MMF-equivalent dose, i.e. 65.3 mg/kg. Blood samples were taken at 0.25, 0.5, 1.0, 2.0, 4.0, 6.0 and 8.0 h after drug administration.
Pharmacokinetic parameters, derived by non-compartmental analysis for test compound (Example 1): […]

On to `COC(=O)/C=C/C(=O)OCCOCCOC(=O)/C=C/C(=O)OC` [Example 3, (E)-But-2-enedioic acid 2-[2-((E)-3-methoxycarbonyl-acryloyloxy)-ethoxy]-ethyl ester methyl ester], for which, in data set [1], the “release of the second equivalent of MMF” value is given as “released more slowly” and the “release kinetics of the first equivalent of MMF” value was “essentially identical to that of DMF”.

Turning to `C[C@]12CC[C@H]3[C@@H](CCC4=CC(=O)CC[C@@]43C)[C@@H]1CC[C@@H]2O` [Testosterone, testosterone], the “Recovery [%] mean ± s.d.” value in the data set with Caco-2 monolayers (direction a-b) was 67.3 ± 1.2% and 62.5 ± 2.1%; in the data set on Caco-2 monolayers (direction b-a), 94.9 ± 0.9% and 76.1 ± 4.5%.

With `COC(=O)/C=C/C(=O)OC` [DMF, Dimethyl fumarate], in data set [2], the body weight entry is “remained stable” and the “development of clinical symptoms (clinical score)” value was “protected from the development of clinical symptoms”. For the same compound, in the data set on Caco-2 monolayers (Caco-2), the “Recovery [%] mean ± s.d.” value was determined as 11.6 ± 1.0% and the “permeability category compared to the reference molecules” value is “moderate permeability”. Besides, the “Papp × 10^−6 [cm/sec] mean ± s.d.” value in the data set on Caco-2 monolayers (human, Caco-2, 250 μM) is reported as 1.8 ± 0.2 10^−6 cm/sec.

Take `COC(=O)/C=C/C(=O)OCCOCCOCCOC(=O)/C=C/C(=O)OC` [Example 2, (E)-But-2-enedioic acid 2-{2-[2-((E)-3-methoxycarbonyl-acryloyl-oxy)-ethoxy]-ethoxy}-ethyl ester methyl ester]: in data set [1], the “release of the second equivalent of MMF” value is on record as “released more slowly” and the “release kinetics of the first equivalent of MMF” value was “essentially identical to that of DMF”.

The term Papp A→B denotes the apparent permeability from the apical to the basolateral side of a cell layer. A low value points to poor permeation. As a reminder, the AUC(0-inf) is the area under the concentration-time curve extrapolated to infinity. Higher therefore signals high exposure. In the case of `COC(=O)/C=C/C(=O)OCCOCCOCCOCCOC(=O)/C=C/C(=O)OC` [Example 1, (E)-But-2-enedioic acid 2-(2-{2-[2-((E)-3-methoxycarbonyl-acryloyl-oxy)-ethoxy]-ethoxy}-ethoxy)-ethyl ester methyl ester], in data set [1], the “release of the second equivalent of MMF” value is listed as “released more slowly” and the “release kinetics of the first equivalent of MMF” value was “essentially identical to that of DMF”. For the same compound, in data set [2], the body weight result is “remained stable” and the “development of clinical symptoms (clinical score)” value is given as “protected from the development of clinical symptoms”. In the data set “in vitro”, the Papp A→B at 250 μM was found to be 10 ± 1 nm/s and the recovery at 90 min, 250 µM stood at 17.1%. The “permeability category compared to the reference molecules” value in the data set on Caco-2 monolayers (Caco-2) is on record as “moderate permeability”. This compound also gave an AUC(0-inf) in data set [3] of 5.99 µg·h/mL.

With `COC(=O)/C=C/C(=O)OC(C)OC(=O)/C=C/C(=O)OC` [(E)-But-2-enedioic acid 1-((E)-3-methoxycarbonyl-acryloyloxy)-ethyl ester methyl ester, reference compound], in data set [1] (incubation in intestinal fluid of the minipig, compared with DMF (FIG. 8)), the “release kinetics of MMF” value is on record as “considerable faster than that of DMF”.

The record behind these values is patent US9969674B2, “MMF-derivatives of ethyleneglycols” (RATIOPHARM GMBH, priority 2014, dated 2018).
